Source: patent publication EP4659750A1, “PHARMACEUTICAL COMPOSITION CONTAINING ß-LACTAMASE INHIBITOR AND USE THEREOF” (Evopoint Biosciences Co., Ltd., priority 2023, dated 2024)
≈ marks a conversion by molar mass, not a printed value. Where two headings read alike, the source gives them in different places.

Key:
[1] = tested on: Acinetobacter baumannii AR0274; assay: Neutropenic mouse thigh infection model, Example 3; assay type: in vivo; conditions: doses at 1,3,5,7 h, thighs 9 h after inoculation
Procedure: (§1) In the following examples, the tests are conducted following the steps below. • (1) Immunization of mice: All mice are injected intraperitoneally with 150 mg/kg cyclophosphamide 4 days before inoculation and 100 mg/kg cyclophosphamide 1 day before inoculation to reduce their neutrophils by immunosuppression. […] The mice are inoculated approximately 24 hours after the second administration of the immunosuppressant. • (2) Bacterial culture: All bacterial strains used for inoculation are prepared from overnight broth cultures. In brief, each strain is allowed to grow in cation-adjusted MuellerHinton broth in a shaking incubator (300 RPM) at 37°C. The overnight cultures are washed twice with phosphate buffer solution (PBS) and adjusted to the optimal concentration in PBS.
(§2) For intravenous (IV) administration, the solution of Compound 1 is prepared using a Captisol vehicle, which is 25 mM acetate buffer (prepared with sodium acetate trihydrate) containing 10% w/v Captisol. The pH is adjusted to 5.0 with 2N acetic acid solution. A desired volume of buffer is added to the weighed sample, the desired concentration of Compound 1 is prepared in the buffer, which is then ultrasonically heated in a water bath until a clear solution was obtained. The administrated volume of Compound 1 is 5 mL/kg.
(§3) For subcutaneous (SC) administration, an imipenem solution or imipenem-cilastatin solution is prepared in sterile PBS by using imipenem monohydrate or imipenem monohydrate and cilastatin sodium. The desired concentration of imipenem is prepared by adding PBS to the solid powder, then sonicating the mixture in a water bath until a clear solution is obtained, and the administrated volume is 10 mL/kg.
The mice were divided into 16 groups, with 5 mice in each group. The test was carried out following the above experimental steps, the inoculation amount of Acinetobacter baumannii AR0274 was 1.8×10^6 CFU per gram of thigh tissue, and the administration was conducted according to the scheme in the table below.
(§4) For Groups 2 to 16 above, animals were euthanized 9 hours after inoculation using an overdose of sodium pentobarbital, followed by confirmation of death by cervical dislocation. The thighs were dissected and weighed, then homogenized in an ice-cold sterile phosphate buffer using a Precellys microsphere homogenizer; and the homogenate was quantitatively cultured on drug-free agar (CLED or PSA) and incubated for 18-24 h at 37°C, followed by colony counting.
(§5) For the […] Group 1 (control group) above, animals were euthanized with an overdose of sodium pentobarbital 1 hour after inoculation. As described above, bilateral thighs were dissected and quantitatively cultured for use as final samples.

Klebsiella pneumoniae = assay: Mice neutropenic thigh infection model, human-simulated dosing regimen, Example 5; assay type: in vivo; conditions: monotherapy, human-simulated imipenem dosing regimen (500 mg, q6h, infused for 60 minutes); four strains
Procedure: A total of 15 bacterial strains (4 strains of Pseudomonas aeruginosa, 4 strains of Klebsiella pneumoniae and 7 strains of Acinetobacter baumannii, see the table below) were selected for dose study of Compound 1 in the mice neutropenic thigh infection model. In terms of administrated dose, imipenem was administered with a human-simulated dosing regimen (500 mg, q6h, infused for 60 minutes),and also combined with different doses of Compound 1.
At 0 h, the mean bacterial load in the thighs of mice was 5.92 ± 0.14 log10 CFU/thigh.

Pseudomonas aeruginosa = assay: as above; assay type: in vivo; conditions: monotherapy, human-simulated imipenem dosing regimen (500 mg, q6h, infused for 60 minutes); four strains; 24 h
Acinetobacter baumannii = assay: as above; assay type: in vivo; conditions: monotherapy, human-simulated imipenem dosing regimen (500 mg, q6h, infused for 60 minutes); seven strains; 24 h
[2] = tested on: Pseudomonas aeruginosa ACC00680; assay: Neutropenic mouse thigh infection model, Example 1 (imipenem and Compound 1); assay type: in vivo; conditions: doses at 1,3,5,7 h, thighs 9 h after inoculation
Procedure: as §1, §2, §3
(§6) The mice were divided into 15 groups, with 5 mice in each group. The test was carried out following the above steps, the concentration of the bacterial solution of Pseudomonas aeruginosa ACC00680 was 1.83×10^5 colony forming unit (CFU) per gram of thigh tissues, and the administration was conducted according to the scheme in the table below.
as §4, with “15” for “16”
as §5

[3] = tested on: Klebsiella pneumoniae ARo113; assay: Neutropenic mouse thigh infection model, Example 4; assay type: in vivo; conditions: doses at 1,3,5,7 h, thighs 9 h after inoculation
Procedure: as §1, §2, §3
as §6, with “16” for “15”, “Klebsiella pneumoniae ARo113” for “Pseudomonas aeruginosa ACC00680”, “4.0x10^6 CFU” for “1.83×10^5 colony forming unit (CFU)”
as §4, with “12-16” for “18-24”, “30°C,” for “37°C,”
as §5

[4] = Solubility of Compound 1 (HPLC), selection of solubilizer type; assay type: physicochemical; conditions: for solubility at 24 h: read-out: Concentration
Procedure: The solubilization effect of sodium sulfobutylether-β-cyclodextrin (SBECD) and hydroxypropyl-β-cyclodextrin (HP-β-CD) on Compound 1 was investigated by taking the solubility in 50 mM pH 4.5 acetate buffer medium and water as a reference. […] Table Solubility of Compound 1 incubated for 24 h at 25°C
In the art, surfactants may also be used for solubilization. To further improve the solubility of Compound 1, a surfactant was added on the basis of SBECD to investigate the solubility. […] Table Solubility of Compound 1 incubated for 24 h at 25°C

OXA β-lactamases = assay: In vitro inhibition of OXA β-lactamases; assay type: biochemical, Acinetobacter baumannii; conditions: in vitro (background statement)
[5] = tested on: Pseudomonas aeruginosa ACC00680; assay: Neutropenic mouse thigh infection model, Example 2 (imipenem, cilastatin and Compound 1); assay type: in vivo; conditions: Compound 1 96 mg/kg total IV; doses at 1,3,5,7 h; thighs 9 h after inoculation
Procedure: as §1, with “The overnight cultures are washed twice with phosphate buffer solution (PBS) and adjusted to the optimal concentration in PBS.” left out
as §4, §5

## C[C@@H](O)[C@H]1C(=O)N2C(C(=O)O)=C(SCCN=CN)C[C@H]12 [Imipenem, imipenem monohydrate]
[1]; Imipenem 96 mg/kg total SC
  Change in Pre-Tx Log10 loading (CFU/g): 1.85 log10 CFU/g
  Group geometric mean (CFU/g): 3.91×10^7 CFU/g
  Log10 group geometric mean (CFU/g): 7.59 log10 CFU/g
Klebsiella pneumoniae
  mean increase in bacterial load: 2.83 ± 0.81 log10 CFU/thigh
Pseudomonas aeruginosa
  mean increase in bacterial load: 2.64 ± 1.18 log10 CFU/thigh
Acinetobacter baumannii
  mean increase in bacterial load: 2.16 ± 0.74 log10 CFU/thigh
[2]; Imipenem 100 mg/kg total SC
  Change in Pre-Tx Log10 load: 0.73 log10 CFU/g
  Group geometric mean (CFU/g): 1.08×10^6 CFU/g
  Log10 group geometric mean (CFU/g): 6.03 log10 CFU/g
[3]; Imipenem 96 mg/kg total SC
  Change in Pre-Tx Log10 loading (CFU/g): 0.93 log10 CFU/g
  Group geometric mean (CFU/g): 1.34×10^7 CFU/g
  Log10 group geometric mean (CFU/g): 7.13 log10 CFU/g

## N=C1NC[C@@H](c2nnc([C@@H]3CC4(CC4)[C@@H]4CN3C(=O)N4OS(=O)(=O)O)o2)N1 [Compound 1]
[1]; Compound 1 96 mg/kg total IV
  Change in Pre-Tx Log10 loading (CFU/g): 1.53 log10 CFU/g
  Log10 group geometric mean (CFU/g): 7.28 log10 CFU/g
[4]; 50 mm acetate buffer, pH 4.5, aqueous buffer, solubility in 50 mM acetate buffer (pH 4.5) (control), 24 h at 25°C
  solubility at 24 h: 3850 µg/mL (≈ 9.64 mM)
[4]; aqueous hp-β-cd 10%, solubility in aqueous HP-β-CD 10%, 24 h at 25°C
  solubility at 24 h: 5000 µg/mL (≈ 12.5 mM)
[4]; aqueous hp-β-cd 20%, solubility in aqueous HP-β-CD 20%, 24 h at 25°C
  solubility at 24 h: 6400 µg/mL (≈ 16 mM)
[4]; aqueous hp-β-cd 30%, solubility in aqueous HP-β-CD 30%, 24 h at 25°C
  solubility at 24 h: 7720 µg/mL (≈ 19.3 mM)
[4]; aqueous sbecd 10%, peg 400, organic solvent or mixture, solubility in aqueous SBECD 10% and PEG 400 5%, 24 h at 25°C
  solubility at 24 h: 6210 µg/mL (≈ 15.5 mM)
[4]; aqueous sbecd 10%, peg 400, organic solvent or mixture, solubility in aqueous SBECD 10% and PEG 400 20%, 24 h at 25°C
  solubility at 24 h: 6350 µg/mL (≈ 15.9 mM)
[4]; aqueous sbecd 10%, peg 400, organic solvent or mixture, solubility in aqueous SBECD 10% and PEG 400 40%, 24 h at 25°C
  solubility at 24 h: 6840 µg/mL (≈ 17.1 mM)
[4]; aqueous sbecd 10%, pvp k12, solubility in aqueous SBECD 10% and PVP K12 0.5%, 24 h at 25°C
  solubility at 24 h: 6440 µg/mL (≈ 16.1 mM)
[4]; aqueous sbecd 10%, pvp k12, solubility in aqueous SBECD 10% and PVP K12 1%, 24 h at 25°C
  solubility at 24 h: 6420 µg/mL (≈ 16.1 mM)
[4]; aqueous sbecd 10%, pvp k12, solubility in aqueous SBECD 10% and PVP K12 2.5%, 24 h at 25°C
  solubility at 24 h: 6380 µg/mL (≈ 16 mM)
[4]; aqueous sbecd 10%, solubility in aqueous SBECD 10%, 24 h at 25°C
  solubility at 24 h: 5960 µg/mL (≈ 14.9 mM)
[4]; aqueous sbecd 20%, solubility in aqueous SBECD 20%, 24 h at 25°C
  solubility at 24 h: 8460 µg/mL (≈ 21.2 mM)
[4]; aqueous sbecd 30%, solubility in aqueous SBECD 30%, 24 h at 25°C
  solubility at 24 h: 10500 µg/mL (≈ 26.3 mM)
[4]; aqueous sbecd, poloxamer 188, solubility in aqueous SBECD 10% and Poloxamer 188 1%, 24 h at 25°C
  solubility at 24 h: 6750 µg/mL (≈ 16.9 mM)
[4]; aqueous sbecd, pvp, poloxamer 188, solubility in aqueous SBECD 10%, PVP K12 0.5% and Poloxamer 188 1%, 24 h at 25°C
  solubility at 24 h: 6950 µg/mL (≈ 17.4 mM)
[4]; aqueous sbecd, pvp, solutol hs15, solubility in aqueous SBECD 10%, PVP K12 0.5% and Solutol HS15 1%, 24 h at 25°C
  solubility at 24 h: 6870 µg/mL (≈ 17.2 mM)
[4]; aqueous sbecd, pvp, tween 80, solubility in aqueous SBECD 10%, PVP K12 0.5% and Tween 80 1%, 24 h at 25°C
  solubility at 24 h: 6990 µg/mL (≈ 17.5 mM)
[4]; aqueous sbecd, solutol hs15, solubility in aqueous SBECD 10% and Solutol HS15 1%, 24 h at 25°C
  solubility at 24 h: 6680 µg/mL (≈ 16.7 mM)
[4]; aqueous sbecd, tween 80, solubility in aqueous SBECD 10% and Tween 80 1%, 24 h at 25°C
  solubility at 24 h: 6920 µg/mL (≈ 17.3 mM)
[4]; solubility in aqueous SBECD 10%, 24 h at 25°C
  Concentration: 5960 µg/mL
[4]; solubility in water (control), incubated 24 h at 25°C
  Concentration: 600 µg/mL
[4]; water, solubility in water (control), incubated 24 h at 25°C
  solubility at 24 h: 600 µg/mL (≈ 1.5 mM)
OXA β-lactamases
  inhibition of OXA β-lactamases: effectively inhibit
[2]; Compound 1 50 mg/kg total IV
  Change in Pre-Tx Log10 load: 0.36 log10 CFU/g
  Log10 group geometric mean (CFU/g): 5.67 log10 CFU/g
[2]; Compound 1 75 mg/kg total IV
  Change in Pre-Tx Log10 load: 0.98 log10 CFU/g
  Log10 group geometric mean (CFU/g): 6.29 log10 CFU/g
[2]; Compound 1 100 mg/kg total IV
  Change in Pre-Tx Log10 load: 1.35 log10 CFU/g
  Log10 group geometric mean (CFU/g): 6.65 log10 CFU/g
[5]
  Change in Pre-Tx Log10 loading (CFU/g): 2.45 log10 CFU/g
  Log10 group geometric mean (CFU/g): 7.51 log10 CFU/g
[3]; Compound 1 96 mg/kg total
  Change in Pre-Tx Log10 loading (CFU/g): 1.11 log10 CFU/g
  Log10 group geometric mean (CFU/g): 7.31 log10 CFU/g
